Assay results: patent publication US11779597B2, “Method of treating Parkinson's and other neurodegenerative diseases” (Vector Vitale IP LLC, priority 2019, dated 2023)

Experiments:
[1] = system: LPS rat models of Parkinson's disease; assay: Pick-up test; type: in vivo; conditions: group V (LPS+^64Zn-asp) versus group IV (LPS)
Text: The pick-up test is a test for increased irritability. The animal is picked up by grasping around the body. Responses were scored as 1, very easy; 2, easy with vocalizations; 3, some difficulty, the rat rears and faces the hand; 4, the rat freezes (with or without vocalization); 5, difficult, the rat avoids the hand by moving away; and 6, very difficult, the rat behaves defensively, and may attack the hand.
On the 1st day of the experiment, rats were either operated to model hemi-parkinsonism or sham operated. From the 9th to the 18th day of the experiment, the animals were injected either deuterium-depleted water or the test substance, according to their allocation into groups, for 10 days. […] On the 24th day of the experiment, behavioral tests were carried out in all groups.

[2] = system: circulating monocytes and granulocytes; assay: Functional and phenotypic properties of circulating phagocytes in LPS rat models; type: in vivo; conditions: animal models of PD
Procedure: (§1) On the 1st day of the experiment, rats were either operated to model hemi-parkinsonism or sham operated. From the 9th to the 18th day of the experiment, the animals were injected either deuterium-depleted water or the test substance, according to their allocation into groups, for 10 days. On the 8th day of the experiment (before initiation of treatment—apomorphine test I) and on the 21st day of the experiment (after the end of administering the test substance —apomorphine test II) the animals underwent an apomorphine test to analyze the development of hemi-parkinsonism which correlates with the number of destroyed dopaminergic neurons. In addition, a follow-up analysis of fecal water content was carried out, i.e., before the start of treatment on the 8th day after the operation, as well as on the 21st (after the end of treatment) and the 28th day (before autopsy). On the 24th day of the experiment, behavioral tests were carried out in all groups. All animals were weighed before autopsy. […]
To assess the anti-inflammatory and immunomodulating effects of the test substance, microglia and peritoneal macrophages were isolated. Phenotypic and functional features of peripheral blood phagocytes were evaluated without their fractioning (using whole blood). […]
Phagocytic activity of microglia, peritoneal macrophages and peripheral blood phagocytes was analyzed on a flow cytometer using FITC-labeled S. aureus Wood 46 cells as an object of phagocytosis. […]
Oxidative metabolism of phagocytes of various localization was analyzed by flow cytometry using the cell-permeant 2′7′-dichlorodihydrofluorescein-diacetate (DHP) (carboxy-H2DCFDA, Invitrogen, USA) which is converted by intracellular esterases to the nonfluorescent membrane-impermeable carboxy-H2DCF form.
The phenotypic profile of phagocytes of various localization was characterized by the expression of markers of functional maturity and metabolic polarization (CD206, CD80 and CD86), which was determined by flow cytometry and the use of monoclonal antibodies of appropriate specificity marked with fluorescent dyes (Abcam, Becton Dickinson).

[3] = system: human T-lymphocytes (CD3+); assay: Spontaneous and PHA-induced proliferative activity and activation-induced apoptosis of T-lymphocytes; type: cell-based; set-up: activation-induced T-cell apoptosis: dose or concentration left out as unconfirmed
Procedure: Materials and Methods: Peripheral blood mononuclear cells were isolated from a healthy donor by density gradient centrifugation over Histopaque-1077 (Sigma, USA). Phytohemagglutinin (PHA) (Sigma, USA) was used to activate the proliferative activity of T-lymphocytes. The cells were exposed to the action of both preparations for 48 hours. A stimulatory (with the addition of the drugs as single components) and costimulatory (with the addition of the drugs in combination with PHA) effects were assessed. CD3 phenotypic marker was used to selectively measure proliferative activity of T-lymphocytes. The T-cell proliferative activity was assessed by analyzing the DNA status of CD3+ cells using a flow cytometry technique. The results are presented in the form of a proliferative index, calculated by the following formula: […]

circulating leukocytes = assay: Blood count values in LPS rat models; type: in vivo; conditions: day 28
Procedure: as §1
The blood count values were analyzed at the completion of the experiment (day 28). The absolute number of leukocytes, as well as the absolute and relative numbers of lymphocytes, monocytes and neutrophilic granulocytes were calculated.

[4] = system: circulating phagocytes (monocytes and neutrophils); assay: Hemogram and functional profile of circulating phagocytes in 6-OHDA rat models after prophylactic administration; type: in vivo; conditions: prophylactic i.p.
Procedure: Methods: Adult mature rodents were used in the study. […] Before prophylactic administration of the experimental drugs, the animals underwent an open field test to assay their general locomotor activity levels and anxiety. The prophylactic course consisted of 10 daily intraperitoneal injections of the drugs (in the case of combination drug, its components were administered at an interval of 2 hours). After the end of prophylactic course, Parkinson's disease was modelled in the animals. […] Ten days after the last (second) apomorphine test, the animals' behavioral responses were assessed in the open field test followed by euthanasia and analysis of functional (metabolic and phenotypic) profiles of phagocytes of different localization. Thus, the study of the functional profile of phagocytes in rat models of Parkinson's disease was performed on day 28 after the end of the course of prophylactic treatment with the experimental drugs. […] Functional characteristics of circulating phagocytes (monocytes and neutrophils) were evaluated in whole blood taken into a tube containing EDTA used as an anticoagulant. Mononuclear and polymorphonuclear phagocytes were analyzed on a flow cytofluorimeter using a gating method. […] The hemogram parameters were analyzed on the hematological analyzer Particle counter model PCE 210 (ERMA, Japan) adapted for the study of blood cells of rats and mice.

^64Zn-enriched zinc aspartate [^64Zne-asp]
irritation in the pick-up test [1]: statistically significant elevation | expression levels of all three markers (CD206, CD80, CD86) by circulating phagocytes [2]: increase | functional reserve of oxidative metabolism of circulating phagocytes [2]: restore | oxidative metabolism of circulating phagocytes of both populations [2]: sharply reduced | activation-induced T-cell apoptosis ([3]; drug used alone): did not have any effect | PHA (mitogen)-induced proliferative activity of T-lymphocytes ([3]; in combination with PHA, 48 hours): stimulatory and costimulatory effects | activation-induced T-cell apoptosis ([3]; in combination with the mitogen): significantly decreased | spontaneous proliferative activity of CD3+ T-lymphocytes ([3]; used separately from PHA, 48 hours): dose-dependent weak stimulatory effect | absolute number of circulating leukocytes (circulating leukocytes): did not influence | oxidative metabolism in circulating neutrophils [4]: absence of any disturbances | phagocytic activity of circulating monocytes [4]: did not differ from that of intact animals
